Key:
[1] = system: HCT116 colon cancer cells; experiment: Senolytic survival assay, chemotherapy-induced senescence in cancer cells; type: cell-based, human; conditions: for Survival, senescent versus control cells: second experiment: doxorubicin 100 nM, etoposide 2 μM or cisplatin 100 μM, or DMSO, replenished after 72 h, 48 h more, FIGS. 7A-C
Procedure: IMR90 cells were used to generate inducible ER:RAS (hereinafter iRAS) cells to model Oncogene induced senescence (OIS), through retroviral infection of pLNC-ER:RAS-neo into IMR90 cells followed by selection with Neomycin. IMR90 cells containing the pLNC-ER:RAS plasmid backbone pLXSN were infected in parallel to assess leakiness in the pLNC-ER:RAS system. Treatment with 100 nM 4OHT (Sigma, in DMSO) was used to induce IMR90 ER:RAS cells to undergo oncogene induced senescence (OIS). Therapy induced senescence (TIS) was induced in IMR90 cells by treatment with 33 μM (50 ug/ml) bleomycin sulphate (Generon, HY-17565) for 24 hours, 20 μM palbociclib (Selleckchem, S1116) for 7 days or 100 nM doxorubicin (Cayman chemical, 15007) for 7 days. Senescence was induced in SK-HEP-1 cells by treatment with 2 μM etoposide (Sigma-Aldrich, E1383) for 7 days (FIGS. 4A-C). HCT-116 senescence was induced by 250 nM treatment with doxorubicin (Cayman chemical, 15007) for 48 hours followed by 5 days culture in media without chemotherapy (FIG. 5), or by treatment with 100 nM doxorubicin, 2 μM etoposide or 100 μM cisplatin for 3 days followed by 4 days culture in media without chemotherapy (FIGS. 6A-7C). Senescence was induced in MCF7 by 200 nM treatment with doxorubicin for 7 days, 2 μM etoposide for 7 days or 10 μM cisplatin for 7 days (FIGS. 8A-9C).
High-throughput microscopy survival assay—To assess senolytic effect of drugs, cells were cultured for 7 days, culture media was changed to DM0.5 media and drugs in DMSO were added (<5% v/v final concentration), drugs were replenished after 3 days if assay length was longer than 72 h. Wells were fixed in 4% PFA for 1 hour at day 10 to 14, washed 3 times with PBS and then stained with 1 μg/mL DAPI (w/v, PBS) for 10 minutes. Wells were then washed 3 times with PBS. Optionally plates could be stored at 4° C. for up to 2 weeks and DAPI stained. Image acquisition of DAPI stained cells was performed on an automated InCell Analyser 2000 (GE Healthcare®) and high-content analysis on the InCell Investigator 2.7.3 software used to quantify number of DAPI positive cells per well. […] Survival was measured as cell counts relative to DMSO treated quiescent or senescent cells.
In a first experiment, HCT116 colon cancer cells were treated with doxorubicin (to induce senescence), or DMSO (as a control). […] 7 days after adding the drugs with replenishment after 3 days, cells were fixed, imaged and cells numbers were quantified using high throughput microscopy. […]
In a second experiment, HCT116 were treated with doxorubicin, etoposide or cisplatin (to induce senescence) or DMSO (as a control). 7 days after treatment, BrdU incorporation (to assess cell division), SA-β-Galactosidase activity and p21^CIP1 expression (as markers of senescence) were analysed. […]

IMR90 ER:RAS cells = experiment: Senolytic activity under IRE1 inhibition with KIRA6; type: cell-based, human; conditions: with 600 nM KIRA6, 4OHT treated cells; FIGS. 15A-B
Procedure: High-throughput microscopy survival assay—To assess senolytic effect of drugs, cells were cultured for 7 days, culture media was changed to DM0.5 media and drugs in DMSO were added (<5% v/v final concentration), drugs were replenished after 3 days if assay length was longer than 72 h. Wells were fixed in 4% PFA for 1 hour at day 10 to 14, washed 3 times with PBS and then stained with 1 μg/mL DAPI (w/v, PBS) for 10 minutes. Wells were then washed 3 times with PBS. Optionally plates could be stored at 4° C. for up to 2 weeks and DAPI stained. Image acquisition of DAPI stained cells was performed on an automated InCell Analyser 2000 (GE Healthcare®) and high-content analysis on the InCell Investigator 2.7.3 software used to quantify number of DAPI positive cells per well. A top-hat method was used to segment cell-nuclei based on DAPI stained area and a minimum nuclear area threshold of 80 μm used to exclude debris. For cancer cell lines, nuclear area threshold was reduced to 40 μm. Survival was measured as cell counts relative to DMSO treated quiescent or senescent cells.
To investigate whether the activation of UPR caused by NMT inhibition in senescent cells was responsible for the senolytic potential of NMT inhibitors, cells were treated with KIRA6, a selective inhibitor of IRE1, a kinase necessary for the UPR. IMR90 ER:RAS cells undergoing senescence (after induction with 4OHT), were treated with 600 nM KIRA6 (an IRE1 inhibitor) on day 4 post-induction. On day 7 post-induction, cells were treated with Compound 1 or 2 and 600 nM KIRA6. […] Both NMT inhibitor and Kira6 were replenished 3 days after addition of NMT inhibitor (at day 10 post-induction). Data is shown as mean±SD, n represents independent biological experiments.

Cc1nn(C)c(C)c1CCOc1c(-c2ccc3c(c2)c(CN(C)C)nn3C)ccc(F)c1F [Compound 1, 1-(5-(3,4-difluoro-2-(2-(1,3,5-trimethyl-1H-pyrazol-4-yl)ethoxy)phenyl)-1-methyl-1H-indazol-3-yl)-N,N-dimethylmethanamine]
Survival (cell counts relative to DMSO), senescent versus control cells ([1]; first experiment: doxorubicin or DMSO, compound added 7 days after induction, read 7 days later, FIG. 5): preferentially kills cancer cells that undergo senescence after being treated with doxorubicin
Survival, senescent versus control cells [1]: preferentially kill cancer cells that undergo senescence after being treated with doxorubicin, etoposide or cisplatin
Dependence of senolytic activity on IRE1 / UPR (IMR90 ER:RAS cells): dependent on IRE1 and the unfolded protein response

Cc1c(NS(=O)(=O)c2c(Cl)cc(-c3ccnc(N4CCNCC4)c3)cc2Cl)c(CC(C)C)nn1C [Compound 2]
Survival, senescent versus control cells [1]: preferentially kill cancer cells that undergo senescence after being treated with doxorubicin, etoposide or cisplatin
Dependence of senolytic activity on IRE1 / UPR (IMR90 ER:RAS cells): dependent on IRE1 and the unfolded protein response
